From patent US11267795B2, “Crystalline PPAR-delta agonist” (Reneo Pharmaceuticals, Inc., priority 2020, dated 2022)

Legend:
[1] = target: T1, PPARα (Homo sapiens, UniProt Q07869); experiment: PPAR agonist activity in human cell lines expressing the three PPAR isotypes; assay type: cell-based
T1 sequence (Q07869 1-468): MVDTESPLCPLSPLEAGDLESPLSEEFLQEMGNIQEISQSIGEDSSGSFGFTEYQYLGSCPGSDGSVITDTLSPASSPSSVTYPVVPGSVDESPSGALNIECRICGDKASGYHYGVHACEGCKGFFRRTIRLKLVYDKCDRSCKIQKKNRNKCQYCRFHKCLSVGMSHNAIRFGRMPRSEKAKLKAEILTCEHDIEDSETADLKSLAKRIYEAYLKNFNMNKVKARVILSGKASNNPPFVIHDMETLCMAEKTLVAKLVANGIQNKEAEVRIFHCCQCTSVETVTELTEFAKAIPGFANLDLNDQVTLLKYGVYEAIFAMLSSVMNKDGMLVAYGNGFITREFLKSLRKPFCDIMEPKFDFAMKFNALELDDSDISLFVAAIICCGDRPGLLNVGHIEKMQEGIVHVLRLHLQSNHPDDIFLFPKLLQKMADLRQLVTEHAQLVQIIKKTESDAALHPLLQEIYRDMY
Protocol: (§1) Compound I is a PPARS agonist that is useful in the methods of treatment described herein. In human cell lines expressing the three peroxisome proliferator-activated receptor (PPAR) isotypes, Compound I is a potent (EC50<100 nM) and selective human PPARS agonist (PPARα (EC50>10 μM) and PPARγ (EC50>10 μM)).

[2] = target: T2, PPARγ (Homo sapiens, UniProt P37231); experiment: as above; assay type: cell-based
T2 sequence (P37231 1-505): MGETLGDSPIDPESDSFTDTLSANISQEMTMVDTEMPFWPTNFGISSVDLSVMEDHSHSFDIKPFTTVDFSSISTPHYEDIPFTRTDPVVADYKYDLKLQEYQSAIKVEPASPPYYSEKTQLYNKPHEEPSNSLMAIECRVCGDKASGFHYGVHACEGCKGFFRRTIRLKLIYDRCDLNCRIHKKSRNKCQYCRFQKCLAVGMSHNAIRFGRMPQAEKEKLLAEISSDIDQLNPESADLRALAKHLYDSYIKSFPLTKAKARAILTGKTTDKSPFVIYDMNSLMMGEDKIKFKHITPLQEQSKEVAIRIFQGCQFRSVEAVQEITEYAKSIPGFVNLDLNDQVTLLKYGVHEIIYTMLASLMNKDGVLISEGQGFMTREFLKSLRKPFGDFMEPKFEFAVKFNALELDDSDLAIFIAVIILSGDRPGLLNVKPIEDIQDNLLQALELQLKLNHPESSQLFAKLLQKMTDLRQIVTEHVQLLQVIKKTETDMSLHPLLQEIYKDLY
Protocol: as §1

[3] = target: T3, PPARδ (Homo sapiens, UniProt Q03181); experiment: as above; assay type: cell-based
T3 sequence (Q03181 1-441): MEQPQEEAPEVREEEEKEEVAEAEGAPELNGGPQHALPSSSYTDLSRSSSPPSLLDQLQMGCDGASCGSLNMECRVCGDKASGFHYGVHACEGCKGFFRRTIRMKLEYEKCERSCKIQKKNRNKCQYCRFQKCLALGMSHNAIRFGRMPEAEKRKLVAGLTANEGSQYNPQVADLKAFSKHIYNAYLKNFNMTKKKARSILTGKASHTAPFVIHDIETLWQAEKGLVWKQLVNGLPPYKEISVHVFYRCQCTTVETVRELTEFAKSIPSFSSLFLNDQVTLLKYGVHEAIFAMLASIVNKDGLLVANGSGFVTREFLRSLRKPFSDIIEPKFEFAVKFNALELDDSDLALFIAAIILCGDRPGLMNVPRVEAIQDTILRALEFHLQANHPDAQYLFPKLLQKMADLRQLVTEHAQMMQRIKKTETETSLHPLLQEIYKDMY
Protocol: as §1

[4] = system: RXR; experiment: Nuclear receptor activation in human cells expressing the receptor; assay type: cell-based
[5] = target: T4, FXR (Homo sapiens, UniProt Q96RI1); experiment: as above; assay type: cell-based
T4 sequence (Q96RI1 1-486): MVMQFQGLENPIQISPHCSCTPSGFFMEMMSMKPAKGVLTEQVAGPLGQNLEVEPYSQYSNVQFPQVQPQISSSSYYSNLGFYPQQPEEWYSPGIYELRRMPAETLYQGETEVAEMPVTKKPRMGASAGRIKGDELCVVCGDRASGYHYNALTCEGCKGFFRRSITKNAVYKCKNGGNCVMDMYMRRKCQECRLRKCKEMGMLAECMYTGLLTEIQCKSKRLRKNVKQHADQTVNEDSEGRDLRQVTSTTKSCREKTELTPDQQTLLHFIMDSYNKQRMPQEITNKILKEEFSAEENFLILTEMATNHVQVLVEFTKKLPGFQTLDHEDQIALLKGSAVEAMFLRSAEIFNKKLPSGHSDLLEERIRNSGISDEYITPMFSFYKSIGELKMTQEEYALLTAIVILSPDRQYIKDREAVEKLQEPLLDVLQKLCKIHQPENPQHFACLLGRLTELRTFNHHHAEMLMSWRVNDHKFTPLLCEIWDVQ

[6] = target: T5, LXRα (Homo sapiens, UniProt Q13133); experiment: as above; assay type: cell-based
T5 sequence (Q13133 1-447): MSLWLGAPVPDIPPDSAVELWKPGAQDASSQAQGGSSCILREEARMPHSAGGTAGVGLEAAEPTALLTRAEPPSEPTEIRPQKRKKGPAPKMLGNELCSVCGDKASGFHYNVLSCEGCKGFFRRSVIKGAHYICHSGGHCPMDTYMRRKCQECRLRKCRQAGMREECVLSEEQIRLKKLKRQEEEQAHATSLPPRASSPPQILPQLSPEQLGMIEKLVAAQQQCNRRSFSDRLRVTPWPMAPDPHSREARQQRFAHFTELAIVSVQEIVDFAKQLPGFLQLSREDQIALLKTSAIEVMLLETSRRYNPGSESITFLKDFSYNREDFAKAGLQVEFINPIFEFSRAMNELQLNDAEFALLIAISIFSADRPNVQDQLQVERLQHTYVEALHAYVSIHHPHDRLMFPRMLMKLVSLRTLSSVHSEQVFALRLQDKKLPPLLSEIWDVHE

[7] = target: T6, LXRP (Homo sapiens, UniProt P55055); experiment: as above; assay type: cell-based
T6 sequence (P55055 1-460): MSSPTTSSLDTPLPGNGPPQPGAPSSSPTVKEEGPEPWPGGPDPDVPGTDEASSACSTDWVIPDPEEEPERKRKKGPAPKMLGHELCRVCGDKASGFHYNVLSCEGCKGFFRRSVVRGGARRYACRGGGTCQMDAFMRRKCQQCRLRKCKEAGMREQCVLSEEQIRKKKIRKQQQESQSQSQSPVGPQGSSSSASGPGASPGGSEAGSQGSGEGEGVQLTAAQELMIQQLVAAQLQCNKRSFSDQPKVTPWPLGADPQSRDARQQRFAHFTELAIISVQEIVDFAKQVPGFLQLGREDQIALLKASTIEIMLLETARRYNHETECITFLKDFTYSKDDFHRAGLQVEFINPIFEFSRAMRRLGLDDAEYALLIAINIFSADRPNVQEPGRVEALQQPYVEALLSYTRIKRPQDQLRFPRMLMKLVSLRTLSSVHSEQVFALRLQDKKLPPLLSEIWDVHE

[8] = system: PPARS regulated genes (CPT1b, PGC-1α) in mice muscle; experiment: In vivo expression of PPARδ regulated genes in mice muscle
[9] = system: Angiopoietin-like 4 (ANGPTL4); experiment: In vivo expression of PPAR target gene in rat muscle
[10] = human cell lines expressing the PPAR isotypes

SMILES: Cc1cc(OC/C=C(/c2ccc(F)cc2)c2ccc(C#CCN3CCOCC3)cc2)ccc1OCC(=O)O [Compound I, (E)-2-(4-((3-(4-fluorophenyl)-3-(4-(3-morpholinoprop-1-yn-1-yl)phenyl)allyl)oxy)-2-methylphenoxy)acetic acid]
- type of agonism at PPARα [1]: partial agonist
- EC50 [1, 10]: > 10 µM
- type of agonism at PPARγ [2]: partial agonist
- EC50 [2, 10]: > 10 µM
- type of agonism at PPARδ [3]: full PPARS agonist
- EC50 [3, 10]: < 0.1 µM
- activation of nuclear receptor RXR [4]: has not resulted in activation
- activation of nuclear receptor FXR [5]: has not resulted in activation
- activation of nuclear receptor LXRα [6]: has not resulted in activation
- activation of nuclear receptor LXRP [7]: has not resulted in activation
- expression of PPARδ regulated genes (CPT1b, PGC-1α) [8]: altered the expression patterns
- expression of Angiopoietin-like 4 (ANGPTL4) [9]: increased the expression
